What all share (assay type): binding
Test [1] addresses T1, BRD9 (Homo sapiens, UniProt Q9H8M2).
T1 construct: ITC experiments using the bromodomain of BRD9
The test is described as follows: AlphaScreen cross screening BRD9. The note with it: average of three replicates ± SEM. As to the method: (§1) AlphaScreen: AlphaScreen was performed as described previously 10, with minor modifications from the manufacturers protocol (PerkinElmer, USA). Briefly, all reagents were diluted in the recommended buffer (50 mM HEPES, 100 mM NaCl, 0.1% BSA; pH = 7.4) supplemented with 0.05% CHAPS and allowed to equilibrate to room temperature prior to […]
(§2) Plates were sealed and incubated at room temperature for 30 min. 4 μL of streptavidin-coated donor beads (10ug/mL final) and 4 μL of nickel chelate acceptor beads (10 μg/ml final) were then added under low light conditions. Plates were foil sealed to protect from light, incubated at room temperature for 60 min and read on a PHERAstar FS plate reader (BMG Labtech, Germany) using an AlphaScreen 680 excitation/570 emission filter set.
(§3) Fragments were dissolved in ethylene glycol to overcome sensitivity of the bromodomain assay to DMSO and allow compounds to be screened at mM concentrations. IC50 […]
(§4) measurements were taken over a 12 point 1:2 serial dilution of compound. IC50s were calculated in GraphPad Prism 5 (GraphPad Software, USA). […]
On the technique in general: In Alpha technology, singlet oxygen from a donor bead excites a nearby acceptor bead.

Test [2] addresses T2, BRD4(1) (Homo sapiens, UniProt O60885).
T2 construct: […]
The test is described as follows: AlphaScreen cross screening BRD4(1). The conditions noted are these: average of three replicates ± SEM. As to the method: as §1, §2, §3, §4

Test [3] addresses T3, BAZ2A (Homo sapiens, UniProt Q9UIF9).
T3 construct: Recombinant BAZ2A and BAZ2B bromodomains were expressed in; made in house; host or cells: E. coli
T3 sequence (Q9UIF9 1793-1897 limits assumed): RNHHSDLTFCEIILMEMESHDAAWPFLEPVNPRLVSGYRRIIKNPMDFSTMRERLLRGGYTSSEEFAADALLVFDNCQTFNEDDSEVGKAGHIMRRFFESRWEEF
The test is described as follows: AlphaScreen assay BAZ2A. The note with it: average of three replicates ± SEM. As to the method:
as §1, §2, §3, §4

Test [4] has as its target T1, BRD9. The test is described as follows: Thermal stability shift assay BRD9. The conditions noted are these: inhibitor concentration 10 μM; read-out: temperature shift (ΔTm) BRD9.
Test [5] deals with T4, TAF1L(2) (Homo sapiens, UniProt Q8IZX4).
T4 construct: the second bromodomain in TAF1L(2)
T4 sequence (Q8IZX4 1517-1626 limits assumed): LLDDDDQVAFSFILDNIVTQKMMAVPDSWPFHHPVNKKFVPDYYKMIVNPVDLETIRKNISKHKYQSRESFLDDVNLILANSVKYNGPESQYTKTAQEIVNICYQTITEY
Nature of the test: Isothermal titration calorimetry TAF1L(2). The note with it: ITC. As to the method:
Thermal stability shift assays: The recombinant bromodomains at 2 µM were mixed with 10 µM inhibitors. The assays and data evaluation for melting temperatures were performed using a Real-Time PCR Mx3005p machine (Stratagene) and the protocols previously […]
Isothermal titration calorimetry: All calorimetric titration experiments were carried out on VP-ITC (MicroCal) at 15 °C. The buffer condition used was 20 mM HEPES, pH 7.5, 150 mM NaCl and 0.5 mM TCEP. Titration was performed by injecting the proteins (200 µM) into a […]
Integrated heat of the titrations after corrected for the heat of dilution were analysed using the Origin program. The corrected data were fitted to a single binding site model using a nonlinear least-square minimization algorithm, and the binding parameters including reaction enthalpy changes (ΔH), reaction […] changes (TΔS), equilibrium dissociation constants (KD), stoichiometry (n) were calculated.
AlphaScreen: AlphaScreen was performed as described previously 10, with minor modifications from the manufacturers protocol (PerkinElmer, USA). […]
Plates were sealed and incubated at room temperature for 30 min. […] Plates were foil sealed to protect from light, incubated at room temperature for 60 min and read on a PHERAstar FS plate reader (BMG Labtech, Germany) using an AlphaScreen 680 excitation/570 emission filter set. […]
(Isothermal titration calorimetry measures the heat released or taken up as one component is titrated into another.)

The target in test [6] is T1, BRD9. The test is described as follows: Isothermal titration calorimetry BRD9. The conditions noted are these: ITC. As to the method: VP-ITC (MicroCal) at 15 °C.
reaction cell containing the inhibitors (15 µM). Integrated heat of the titrations after corrected
modifications from the manufacturers protocol (PerkinElmer, USA). Briefly, all reagents were
final) were then added under low light conditions. Plates were foil sealed to protect from […]

“And” between values parts separate entries of the source, which are not always exact repeats. Equal entries are not always repeated. Where only a bound is given, the exact number is not on record here.

T1 sequence (Q9H8M2 136-240): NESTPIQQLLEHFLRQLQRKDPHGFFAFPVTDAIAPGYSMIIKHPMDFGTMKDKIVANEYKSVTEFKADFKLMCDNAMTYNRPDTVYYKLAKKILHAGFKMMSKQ

The term IC50 denotes the concentration that gives 50% inhibition. A higher IC50 goes with a need for much substance. With `CC(=O)c1cc(-c2ccccc2S(C)(=O)=O)c2cc(Oc3ccccc3)ccn12` [Compound 20, 1-(1-(2-(methylsulfonyl)phenyl)-7-phenoxyindolizin-3-yl)ethanone], the IC50 in test [1] was 19.9 ± 1.84 µM; in test [2], > 50 µM; in test [3] it was 550 nM.
`CC(=O)c1cc(-c2ccccc2CO)c2cc(C)ccn12` [Compound 13, 1-(1-(2-(hydroxymethyl)phenyl)-7-methylindolizin-3-yl)ethanone] displayed an IC50 in test [3] of 1000 ± 90 nM.
Same read-out and setting: to `CC(=O)c1cc(-c2cccs2)c2ccccn12` [Compound 4, 1-(1-(Thiophen-2-yl)indolizin-3-yl)ethanone] belongs 8600 ± 10 nM; to `CC(=O)c1cc(-c2cccc(O)c2)c2ccccn12` [Compound 6, 1-(1-(3-hydroxyphenyl)indolizin-3-yl)ethanone], 3300 ± 50 nM.
On the same count and under the same terms, to `CC(=O)c1cc(-c2ccccc2CO)c2cc(C(N)=O)ccn12` [Compound 16, 3-acetyl-1-(2-(hydroxymethyl)phenyl)indolizine-7-carboxamide] belongs 4100 ± 90 nM; to `COc1ccn2c(C(C)=O)cc(-c3ccccc3CO)c2c1` [Compound 14, 1-(1-(2-(hydroxymethyl)phenyl)-7-methoxyindolizin-3-yl)ethanone], 1200 ± 10 nM.
Same read-out and setting: to `CC(=O)c1cc(-c2ccccc2O)c2ccccn12` [Compound 5, 1-(1-(2-hydroxyphenyl)indolizin-3-yl)ethanone] belongs 7200 ± 60 nM.
For the compound `CC(=O)c1cc(-c2ccccc2CO)c2ccccn12` [Compound 7, 1-(1-(2-(hydroxymethyl)phenyl)indolizin-3-yl)ethanone], the figures for the IC50 in test [1], in test [2] and in test [3] were 23.7 ± 0.16 µM, 38.9 ± 13.3 µM and 1800 ± 50 nM, respectively.
As for `COc1cccc(-c2cc(C(C)=O)n3ccccc23)c1` [Compound 3, 1-(1-(3-Methoxyphenyl)indolizin-3-yl)ethanone], in test [3], the IC50 is > 30000 nM.
As to `CC(=O)c1cc(-c2cccc(C(N)=O)c2)c2ccccn12` [Compound 8, 3-(3-acetylindolizin-1-yl)benzamide], half-maximal inhibition in test [3] (IC50) was put at 1800 ± 20 nM.
As a reminder, the Kd is the equilibrium constant for the complex coming apart. Low values mean a tighter complex, high ones a looser complex. Take `CCCOc1ccn2c(C(C)=O)cc(-c3ccccc3S(C)(=O)=O)c2c1` [Compound 19, 1-(1-(2-(methylsulfonyl)phenyl)-7-propoxyindolizin-3-yl)ethanone]: the ΔTm at 10 µM in test [4] was found to be 2.3 °C. For the same compound, the IC50 in test [1] and in test [2] was > 50 µM each time. Also, in test [5], the “binding enthalpy change ΔH TAF1L(2)” value was −8.6 (±0.02) kcal/mol. Besides, the Kd is 3.2 µM and 3.19 µM in test [5] (listed as GSK2801); 1200 nM in test [6] (listed as GSK2801). Further, the “binding enthalpy change ΔH BRD9” value in test [6] is listed as −9.8 (±0.01) kcal/mol.
On to `CC(=O)c1cc(-c2ccccc2S(C)(=O)=O)c2ccccn12` [Compound 12, 1-(1-(2-(methylsulfonyl)phenyl)indolizin-3-yl)ethanone], for which the IC50 in test [1] is 17.9 ± 3.85 µM; in test [2], > 50 µM; in test [3], 720 ± 70 nM.
Take `CC(=O)c1cc(-c2ccc(CO)cc2)c2ccccn12` [Compound 10, 1-(1-(4-(hydroxymethyl)phenyl)indolizin-3-yl)ethanone]: the IC50 in test [3] came to 1200 ± 70 nM.
Regarding `COc1ccc(-c2cc(C(C)=O)n3ccccc23)c(CO)c1` [Compound 9, 1-(1-(2-(hydroxymethyl)-4-methoxyphenyl)indolizin-3-yl)ethanone], inhibition in test [3] was half-maximal at 1400 ± 10 nM (IC50).
`CC(=O)c1cc(-c2ccccc2CO)c2cc(N3CCOCC3)ccn12` [Compound 15, 1-(1-(2-(hydroxymethyl)phenyl)-7-morpholinoindolizin-3-yl)ethanone] displayed an IC50 in test [3] of 1700 ± 130 nM. This IC50 and that of the compound before are within 1.5-fold of each other.
As to `CC(=O)c1cc(-c2ccccc2S(C)(=O)=O)c2cc(CNC(=O)OC(C)(C)C)ccn12` [Compound 18, tert-butyl ((3-acetyl-1-(2-(methylsulfonyl)phenyl)indolizin-7-yl)methyl)carbamate], the results for the IC50 in test [1], in test [2] and in test [3] were 1.4 ± 0.04 µM, > 50 µM and 160 ± 50 nM, respectively.
Regarding `CC(=O)c1cc(-c2ccccc2CO)c2cc(Oc3ccccc3)ccn12` [Compound 17, 1-(1-(2-(hydroxymethyl)phenyl)-7-phenoxyindolizin-3-yl)ethanone], half-maximal inhibition in test [3] (IC50) was put at 4100 ± 60 nM.
For `COc1ccn2c(C(C)=O)cc(-c3ccccc3S(C)(=O)=O)c2c1` [Compound 21, 1-(7-methoxy-1-(2-(methylsulfonyl)phenyl)indolizin-3-yl)ethanone], the figures for the IC50 in test [1], in test [2] and in test [3] were > 50 µM, > 50 µM and 580 ± 50 nM, respectively.
In turn, `CC(=O)c1cc(-c2ccc(N(C)C)cc2)c2ccccn12` [Compound 11, 1-(1-(4-(dimethylamino)phenyl)indolizin-3-yl)ethanone] yielded an IC50 in test [3] of 1100 ± 70 nM.
Same read-out and setting: to `CC(=O)c1cc(-c2ccccc2S(C)(=O)=O)c2cc(C)ccn12` [Compound 22, 1-(7-methyl-1-(2-(methylsulfonyl)phenyl)indolizin-3-yl)ethanone] belongs 890 nM.

The values are drawn from article PMC4770311, “Discovery and Characterization of GSK2801, a Selective Chemical Probe for the Bromodomains BAZ2A and BAZ2B” (Journal of Medicinal Chemistry, 2015).
